Where “and” joins values, the source holds several entries; their conditions need not be identical. Identical values can stand only once.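 Results reflect a 48-hour exposure of cells in 96-well plates to compound at five concentrations. GI50 = concentration required for 50% inhibition of growth. TGI is the concentration that stops growth completely.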 A value given as a limit tells only on which side of the number the result lay.

Among the data in PubChem BioAssay (NCI) are GI50 and TGI values, retold here.

What all share (assay): NCI anticancer screen, dose series, 48 h
Test [1] relates to ACHN renal.
For test [2], the system named is COLO 205 colon.
The subject of test [3] is IGROV1 ovarian.
For test [4], the system named is HCT-116 colon.
The subject of test [5] is CCRF-CEM leukemia.
The subject of test [6] is UO-31 renal.
Test [7] deals with K-562 leukemia.
For test [8], the system named is 786-0 renal.
For test [9], the system named is HL-60(TB) leukemia.
The subject of test [10] is SNB-19 CNS.

Consider `COC(=O)C12CC(NC(=O)c3csc([C@@H](C[C@H](C(C)C)N(C)C(=O)[C@@H](NC(=O)[C@H]4CCCCN4C)C(C)C)OC(C)=O)n3)(C1)C2`, for which the GI50 was 0.0174 µM in test [1]; 0.00141 µM in test [2]; 0.00237 µM and 0.00333 µM in test [3]; 0.00302 µM and 0.00333 µM in [4]; 0.000518 µM and 0.00333 µM in test [5]; 0.0462 µM in test [6]. The GI50 was 0.000513 µM and 0.00333 µM in test [7]; 0.005 µM and 0.00333 µM in test [8]; 0.000345 µM in test [9]; 0.0022 µM and 0.00333 µM in test [10]. In addition, the TGI in test [1] is over 33.3 µM; in [2], 0.0162 µM; in [3], over 33.3 µM; in test [4], over 33.3 µM; in [5], over 33.3 µM; in test [7] it was over 33.3 µM. Also, the TGI is over 33.3 µM in test [8], 0.00302 µM in test [9] and over 33.3 µM in test [10].
As for `Fc1ccc(-c2ncn(C3CCNCC3)c2-c2ccnc(Oc3ccc(Oc4ccccc4)cc3)n2)cc1`, the GI50 in test [1] was 3.77 µM; in test [2] it was 2.48 µM; in test [3], 3.78 µM; in test [4] it was 3.47 µM; in test [5], 5.22 µM; in [6], 2.96 µM. Further, the GI50 in [7] was 1.95 µM; in test [8], 4.03 µM; in [9], 3.93 µM; in test [10], 4.25 µM. Moreover, the TGI in test [1] was found to be 7.19 µM; in test [2] it was 6.23 µM; in [3] it was 7.5 µM; in [4], 6.76 µM; in test [5] it was 10.3 µM; in [6] it was 6.29 µM. For the same compound, the TGI in test [7] worked out at 5.74 µM; in test [8], 7.75 µM; in [9], 8.33 µM; in test [10] it was 7.92 µM.
On to `C/C(=C\COc1ccc2ccc(=O)oc2c1)CCC(=O)C(C)(C)O`, for which the TGI in [1] was over 100 µM; in [2], 44.4 µM; in test [3], over 100 µM; in test [4], 32.2 µM; in test [5] it was 46.7 µM; in [6], 91.9 µM. In addition, the TGI in test [7] is 46.8 µM; in test [8] it was 43.3 µM; in test [9], 45.7 µM; in test [10] it was over 100 µM.
For the compound `CCCCOc1nc2ccccc2cc1C1CNC(=O)c2ccccc2N1` (stereo unspecified), the GI50 is 4.31 µM in test [1]; 2.39 µM in test [2]; 4.63 µM in test [3]; 1.92 µM in test [4]; 2.93 µM in [5]; 2.83 µM in test [6]. In addition, the GI50 in test [7] was 1.26 µM; in test [8] it was 3.14 µM; in test [9], 0.357 µM; in [10] it was 5.55 µM. Besides, the TGI in [1] came out at 17.8 µM; in test [2] it was 5.63 µM; in [3] it was 22.9 µM; in test [4], 5.47 µM; in test [5], 18.8 µM; in test [6], 20 µM. For the same compound, the TGI turned out to be 14.2 µM in test [7], 11.1 µM in [8], 1.9 µM in test [9] and 44.8 µM in [10].
`CC(C)N(C(=O)C12C3C4C5C3C1(C(=O)N(C(C)C)C(C)C)C5C42)C(C)C` (stereo unspecified): the TGI in [1] is over 100 µM; in [2], over 60.6 µM; in test [3] it was over 100 µM; in test [4], over 57.8 µM; in test [5] it was over 68.3 µM; in [6], over 100 µM. For the same compound, the TGI in test [7] was over 61.5 µM; in test [8], over 100 µM; in test [9], over 55.6 µM; in test [10], over 100 µM.
Regarding `O=C1c2ccccc2-c2c1c1ccccc1c(=O)n2CCCNCCO`, the GI50 was 0.195 µM in test [1]; 0.63 µM in test [2]; 0.501 µM in test [3]; 0.298 µM in [4]; 0.165 µM in [5]; 0.303 µM in test [6]. The GI50 in test [7] is 0.284 µM; in [8], 0.234 µM; in test [9], 0.175 µM; in [10] it was 0.813 µM. The TGI came to 0.906 µM in [1]; 3.75 µM in test [2]; 3.76 µM in test [3]; 3.53 µM in test [4]; 1.11 µM in test [5]; 2.06 µM in test [6]. Besides, the TGI in [7] turned out to be 7.95 µM; in [8], 10.9 µM; in test [9] it was 0.88 µM; in test [10], 6.73 µM.
As to `COC(=O)[C@@H](C)C[C@H](Cc1ccccc1)NC(=O)c1csc([C@@H](C[C@H](C(C)C)N(C)C(=O)[C@@H](NC(=O)CN(C)C)C2CC2)OC(C)=O)n1`, the GI50 is 0.0938 µM in test [1]; 0.0231 µM in test [2]; 0.0245 µM in test [3]; 0.0154 µM in test [4]; 0.0154 µM in [5]; 0.478 µM in test [6]. Also, the GI50 is 0.00299 µM in test [7], 0.0382 µM in test [8], 0.00272 µM in test [9] and 0.0862 µM in test [10]. Also, the TGI in [1] is over 16.5 µM; in [2] it was 0.499 µM; in [3], over 16.5 µM; in [4] it was over 5.86 µM; in test [5], over 3.28 µM; in test [6], over 16.5 µM. Further, the TGI in test [7] was over 16.5 µM; in [8], over 16.5 µM; in [9] it was 0.0106 µM; in [10], over 16.5 µM.
For `CC(C)=CCCC1(C)C=Cc2c(ccc3c2[nH]c2cc(O)c(C)cc23)O1` (stereo unspecified), the GI50 was 6.83 µM in test [1]; 8.79 µM in test [4]; 4.97 µM in test [5]; 5.64 µM in test [7]; 4.27 µM in test [8]; 9.48 µM in [9]. Moreover, the GI50 in test [10] is over 25 µM. In addition, the TGI in test [1] is 20.2 µM; in test [2], over 2.5 µM; in [3] it was over 2.5 µM; in test [4], over 25 µM; in [5] it was 15.2 µM; in [6] it was over 2.5 µM. The TGI is 15.6 µM in [7], 7.87 µM in [8], over 25 µM in [9] and over 25 µM in [10].
